In brackets after ≈: the same amount, converted by molar mass. Read-outs that look alike come from different tables or passages of the source.
Legend:
[1] = tested on: Mycolicibacterium aurum DSM 43999; test: Antimycobacterial microdilution broth MIC (resazurin), M. aurum; assay type: cell-based; conditions: DSM43999, read-out: MIC M. aurum
[2] = buffer, 3 h, 1 µM, pH 7.4
Description: HPLC-MS stability determination in PBS (pH 7.4)
Briefly, compounds were dissolved in DMSO to produce stock sample solutions.
NaOH. The concentration of tested compounds was set at 1 µM.
After that, 150 µL of supernatant was
transferred to the vial and analyzed by LC-MS.
3000 RS coupled with a Q Exactive Plus orbitrap mass spectrometer to obtain the areas (Thermo Fisher
Scientific, Bremen, Germany). Reverse-phase C18 column Kinetex EVO (Phenomenex, Torrance, CA,
USA) was used as a stationary phase, and purified water with 0.1% formic acid (mobile phase A) and
LC-MS grade acetonitrile with 0.1% formic acid (mobile phase B) were used as the mobile phases.
Gradient elution was used to determine purities and mass spectra. The method started with 5% B for
0.3 min, then the gradient switched to 100% B in the third min, remained at 100% B for 0.7 min and
then went back to 5% B with equilibration for 3.5 min. The total run time of the method was 7.5 min.
The column temperature was kept constant at 27 °C, the flow of the mobile phase was 0.5 mL/min,
and the injection volume was 1 µL.

[3] = tested on: Candida albicans CCM 8320, ATCC 24433; test: Antifungal microdilution broth MIC, CA
[4] = tested on: Acinetobacter baumannii DSM 30007, ATCC 19606; test: Antibacterial microdilution broth MIC, ACI; assay type: cell-based
[5] = tested on: Candida krusei CCM 8271, ATCC 6258; test: Antifungal microdilution broth MIC, CK; conditions: Pichia kudriavzevii
[6] = tested on: Staphylococcus aureus CCM 4223, ATCC 29213; test: Antibacterial microdilution broth MIC, SA; assay type: cell-based; conditions: Staphylococcus aureus
[7] = tested on: Trichophyton interdigitale CCM 8377, ATCC 9533; test: Antifungal microdilution broth MIC, TI; conditions: Trichophyton interdigitale
[8] = tested on: Mycobacterium tuberculosis H37Ra; test: Antimycobacterial microdilution broth MIC (resazurin), Mtb H37Ra; assay type: cell-based; conditions: for MIC: Mycobacterium tuberculosis, H37RA, read-out: MIC Mtb H37Ra
[9] = tested on: Aspergillus fumigatus ATCC 204305; test: Antifungal microdilution broth MIC, AF
HepG2 cell line = test: Cytotoxicity CellTiter 96, HepG2; assay type: cell-based, human; conditions: 24 h incubation, ^c compound precipitated in the testing medium, ^d over the limit of tested concentrations
A498 cell line = test: Cytotoxicity CellTiter 96, A498; assay type: cell-based; conditions: Homo sapiens, 24 h incubation
Description: The cytotoxicity of final compounds was determined in human hepatocellular carcinoma cell line HepG2. Additional testing of selected compounds was performed on human epithelial kidney cancer cell line A498, human prostate cancer cell line PC‐3, human glioblastoma cell line U‐87 MG, and normal human proximal tubule cell line HK‐2.
Cytotoxicity determination […]
For subculturing, the cells were harvested after trypsin/EDTA (Sigma–Aldrich) treatment at 37 °C. To evaluate cytotoxicity, the cells treated with the tested substances were used as experimental groups whereas untreated HepG2 cells served as controls. The cells were seeded in density 10,000 cells per well in a 96 well plate. The next day the cells were treated with each of the tested substances dissolved in DMSO. The tested substances were […]
in triplicates according to their solubility. Simultaneously, the controls representing 100% cell viability, 0% cell viability (the cells treated with 10% DMSO), no cell control and vehiculum controls were also […]
the reagent from the kit CellTiter 96 AQueous One Solution Cell Proliferation Assay (CellTiter 96; PROMEGA, Fitchburg, USA) was added. After 2h incubation at 37 °C, absorbance of samples was recorded at 490 nm (TECAN, Infinita M200, Austria). A standard toxicological parameter IC50 was calculated by nonlinear regression from a semilogarithmic plot of incubation concentration versus percentage of absorbance relative to untre ated controls using GraphPad Prism 8 software.
Human epithelial kidney carcinoma A498 cell line, obtained from American Type Culture Collection (ATCC, Manassas, VA, USA, catalogue No.: HTB -44), was cultured in RPMI medium, Human normal kidney proximal tubule HK-2 cell line obtained from ATCC (ATCC, Manassas, VA, USA, catalogue No.:
Kaighn's Modification of Ham's F-12 Medium and human glioblastoma astrocytoma U-87 MG cell line, […]
Glucose medium. All cultures were supplemented with 10% fetal bovine serum, 1% non-essential amino acids (A498, HK-2 and U-87 MG), 1% sodium pyruvate (A498, HK-2 and U-87 MG) and 2 mM L-glutamine. […]

[10] = ATCC204305, 24 h, read-out: MIC AF 24h
[11] = ATCC204305, 48 h, read-out: MIC AF 48h

| Structure (SMILES) | MIC [1] [µg/mL] | concentration remaining (hydrolytic stability) [2] [%] | MIC ([3]; 24 h, read-out: MIC CA 24h) [µM] | MIC ([3]; 48 h, read-out: MIC CA 48h) [µM] | MIC ([4]; 24 h, read-out: MIC ACI 24h) [µM] | MIC ([4]; 48 h, read-out: MIC ACI 48h) [µM] | MIC ([5]; 24 h, read-out: MIC CK 24h) [µM] | MIC ([5]; 48 h, read-out: MIC CK 48h) [µM] | MIC ([6]; 24 h, read-out: MIC SA 24h) [µM] | MIC ([6]; 48 h, read-out: MIC SA 48h) [µM] | MIC ([7]; 72 h, read-out: MIC TI 72h) [µM] | MIC ([7]; 120 h, read-out: MIC TI 120h) [µM] | MIC ([8]; Calculated from MIC (μg/mL)) [µM] | MIC [8] [µg/mL] | SI (selectivity index) ([8]; SI = HepG2 IC50 (μM)/MIC MtbH37Ra (μM), calculated for compounds with MIC ≤ 31.25 μg/mL) | MIC [9, 10] [µM] | MIC [9, 11] [µM] | IC50 (HepG2 cell line) [µM] | IC50 (HepG2 cell line; Homo sapiens, HepG2, 24 h) [µM] | IC50 (A498 cell line) [µM] |
| --- | --- | --- | --- | --- | --- | --- | --- | --- | --- | --- | --- | --- | --- | --- | --- | --- | --- | --- | --- | --- |
| COc1ccc(CC(=O)Nc2cccc(Cl)n2)cc1 [Compound 12, 2-(4-methoxyphenyl)-N-(6-chloropyridin-2-yl)acetamide] | 62.5 (≈ 226 µM) | ≥ 90 | > 500 | > 500 | > 500 | > 500 | > 500 | > 500 | 500 (≈ 138 µg/mL) | 500 (≈ 138 µg/mL) | > 500 | > 500 | 56.3 | 15.6 | 9.2 | > 500 | > 500 | 516 | > 500 | – |
| O=C(Cc1cccc(Cl)c1)Nc1ccc(Cl)cn1 [Compound 17, 2-(3-chlorophenyl)-N-(5-chloropyridin-2-yl)acetamide] | 250 (≈ 889 µM) | – | > 500 | > 500 | > 500 | > 500 | > 500 | > 500 | > 500 | > 500 | 500 (≈ 141 µg/mL) | 500 (≈ 141 µg/mL) | 445 | 125 | – | > 500 | > 500 | – | 112 | 135 |
| O=C(Cc1ccccc1C(F)(F)F)Nc1cccc(Cl)n1 [Compound 24] | > 500 | ≥ 90 | > 500 | > 500 | > 500 | > 500 | > 500 | > 500 | > 500 | > 500 | 500 (≈ 157 µg/mL) | 500 (≈ 157 µg/mL) | > 1590 | > 500 | – | > 500 | > 500 | – | 64.6 | 278 |
| O=C(Cc1cccc(C(F)(F)F)c1)Nc1ccc(Cl)cn1 [Compound 26] | > 500 | – | > 500 | > 500 | > 500 | > 500 | > 500 | > 500 | > 500 | > 500 | 500 (≈ 157 µg/mL) | 500 (≈ 157 µg/mL) | > 1590 | > 500 | – | > 500 | > 500 | – | 52.9 | 128 |

— PMC11748363, “Antimicrobial and Antiproliferative Properties of 2‐Phenyl‐N‐(Pyridin‐2‐yl)acetamides” (Chemical Biology & Drug Design, 2025)
